Source: article PMC6346587, “Glucose 6-phosphate dehydrogenase 6-phosphogluconolactonase: characterization of the Plasmodium vivax enzyme and inhibitor studies” (Malaria Journal, 2019)
Where two headings read alike, the source gives them in different places.

T1: PfGluPho (Plasmodium falciparum, UniProt Q8IKU0)
T1 construct: made in house
T1 sequence (Q8IKU0 1-910): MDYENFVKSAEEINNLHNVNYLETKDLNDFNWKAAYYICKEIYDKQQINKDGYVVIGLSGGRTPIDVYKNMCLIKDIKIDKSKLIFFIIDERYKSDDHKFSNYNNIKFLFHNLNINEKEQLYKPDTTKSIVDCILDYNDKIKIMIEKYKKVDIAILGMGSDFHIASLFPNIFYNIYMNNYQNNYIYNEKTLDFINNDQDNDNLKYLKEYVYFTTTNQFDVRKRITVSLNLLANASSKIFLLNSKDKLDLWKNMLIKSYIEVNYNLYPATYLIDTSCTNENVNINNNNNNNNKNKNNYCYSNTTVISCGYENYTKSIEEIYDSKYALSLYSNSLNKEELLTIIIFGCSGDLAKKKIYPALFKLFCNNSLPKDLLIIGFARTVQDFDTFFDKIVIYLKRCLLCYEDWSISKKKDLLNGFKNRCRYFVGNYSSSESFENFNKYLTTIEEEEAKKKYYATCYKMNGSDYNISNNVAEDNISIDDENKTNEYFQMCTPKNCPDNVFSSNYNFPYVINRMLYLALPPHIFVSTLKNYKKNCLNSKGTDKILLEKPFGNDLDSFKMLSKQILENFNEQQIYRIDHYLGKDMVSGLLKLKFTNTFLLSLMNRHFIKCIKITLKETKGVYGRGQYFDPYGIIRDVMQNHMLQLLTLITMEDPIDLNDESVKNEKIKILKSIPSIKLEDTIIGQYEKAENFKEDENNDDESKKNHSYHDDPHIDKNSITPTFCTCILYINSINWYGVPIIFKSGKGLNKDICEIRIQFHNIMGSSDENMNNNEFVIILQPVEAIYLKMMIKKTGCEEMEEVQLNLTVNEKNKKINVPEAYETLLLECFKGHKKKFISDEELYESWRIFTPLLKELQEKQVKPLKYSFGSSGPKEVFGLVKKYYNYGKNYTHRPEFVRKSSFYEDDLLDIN


Columns and labels:
PvG6PD = PvG6PD (Plasmodium vivax, UniProt A5K3M1); assay: PvG6PD enzyme inhibition assay (NADPH formation, absorbance 340 nm / fluorescence); assay type: biochemical; settings: for IC50 on PvG6PD: ellagic acid and derivatives
Procedure: The G6PD activity of PfGluPho variants was measured spectrophotometrically as described for the wt enzyme. Kinetic characterization of PvG6PD was performed using the same assay system at an Evolution 300 spectrophotometer (Thermo Scientific, Dreieich, Germany). In brief, the initial reduction of NADP^+ to NADPH by PvG6PD was monitored by measuring the absorbance at 340 nm. The 500 µL reaction mixture contained 200 µM NADP^+ and varying concentrations of PvG6PD in an assay buffer of 100 mM Tris–HCl, pH 8.0, 10 mM MgCl2, and 0.5 mM EDTA at 25 °C. The reaction was started by adding 800 µM G6P. The KM for NADP^+ was determined by titrating NADP^+ from 2 to 400 µM at 800 µM G6P; the KM for G6P was measured accordingly by titrating G6P from 2 to 1200 µM at 200 µM NADP^+. KM values were calculated using GraphPad Prism. Since the KM for G6P was considerably higher than the value measured for PfGluPho [14], a concentration of 800 µM G6P was defined as substrate saturation for PvG6PD.
(§1) To identify potential inhibitors of PvG6PD, compounds with already known effects on PfGluPho (ellagic acid and derivatives, ML304) were tested. Additionally, several compound libraries of the Helmholtz Center for Infection Research, Brunswick, were screened against PfGluPho using the high-throughput-compatible assay systems described in Preuss et al.. […] Based on structure-activity relationship studies, a set of new potential G6PD inhibitors (Fig. 8) was then synthesized and assessed. First, the IC50 values of the compounds were determined, followed by mechanistic characterization of the mode of action. To test for selectivity of the compounds, the IC50 values of the compounds on PvG6PD, PfGluPho, and hG6PD were determined in parallel.
(§2) All measurements were performed in 96-well plates, half area (Greiner Bio-One, Frickenhausen, Germany) using a Tecan Infinite M200 plate reader (Maennedorf, Switzerland). The compounds were dissolved in 100% DMSO and afterwards diluted in assay buffer to the required concentrations. Different compound concentrations were added to a mixture of enzyme and NADP^+ in assay buffer. Concentrations of substrates differed depending on the enzyme; an overview is given in the Additional file 4. The reaction was started by adding G6P, and the increase of NADPH was monitored by measuring the absorbance at 340 nm. To increase the sensitivity of the assay, some measurements were reproduced, detecting the fluorescence of NADPH at ex340/em460. […] A negative control containing no compound was defined as 0% inhibition; a positive control lacking the substrate G6P was defined as 100% inhibition. For evaluations using GraphPad Prism and Microsoft Excel, only a linear increase in absorbance/fluorescence was considered. For the mechanistic characterization of the compounds, either NADP^+ or G6P were titrated at different compound concentrations around the IC50, while keeping the second substrate in saturation. The initial slope was plotted as Michaelis–Menten curves and Lineweaver–Burk plots using GraphPad Prism; KM values and Vmax were calculated with GraphPad Prism software.

PfGluPho = target: T1, PfGluPho; assay: PfGluPho G6PD activity inhibition assay; assay type: biochemical
Procedure: as §1, §2

[1] = Stability of compounds in enzyme assay buffer; assay type: physicochemical; settings: 100 mM Tris–HCl pH 8.0 assay buffer, DMSO stock
hG6PD = target: T2, hG6PD (Homo sapiens, UniProt P11413); assay: hG6PD enzyme inhibition assay; assay type: biochemical; settings: for IC50 on hG6PD relative to plasmodial enzymes (selectivity): compared with PfGluPho and PvG6PD
T2 construct: made in house
Procedure: as §1, §2

[2] = target: the molecule itself; assay: SEC; size exclusion chromatography of purified PfGluPho mutants under reducing conditions
[3] = mean ± SD, at least two independent determinations, different enzyme batches, read-out: IC50 on PfGluPho
[4] = mean ± SD, only one enzyme batch, read-out: IC50 on hG6PD

Sequence of PvG6PD (A5K3M1 entry or part of it): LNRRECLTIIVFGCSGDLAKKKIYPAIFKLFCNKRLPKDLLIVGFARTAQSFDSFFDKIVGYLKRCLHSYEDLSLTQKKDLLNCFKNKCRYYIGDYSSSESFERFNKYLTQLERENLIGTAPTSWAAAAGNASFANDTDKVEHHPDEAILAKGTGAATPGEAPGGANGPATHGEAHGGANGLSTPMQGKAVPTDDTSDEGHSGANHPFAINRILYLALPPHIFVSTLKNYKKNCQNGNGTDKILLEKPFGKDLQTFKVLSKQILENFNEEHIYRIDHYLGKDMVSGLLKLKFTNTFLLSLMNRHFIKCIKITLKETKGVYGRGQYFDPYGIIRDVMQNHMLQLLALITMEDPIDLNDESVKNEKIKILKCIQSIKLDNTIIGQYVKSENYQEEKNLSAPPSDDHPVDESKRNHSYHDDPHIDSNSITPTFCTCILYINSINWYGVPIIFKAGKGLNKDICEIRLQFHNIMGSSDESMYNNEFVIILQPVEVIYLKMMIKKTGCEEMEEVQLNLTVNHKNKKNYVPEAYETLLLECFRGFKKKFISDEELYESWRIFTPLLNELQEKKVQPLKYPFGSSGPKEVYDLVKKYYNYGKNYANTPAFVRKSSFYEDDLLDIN
T2 sequence (P11413 whole entry): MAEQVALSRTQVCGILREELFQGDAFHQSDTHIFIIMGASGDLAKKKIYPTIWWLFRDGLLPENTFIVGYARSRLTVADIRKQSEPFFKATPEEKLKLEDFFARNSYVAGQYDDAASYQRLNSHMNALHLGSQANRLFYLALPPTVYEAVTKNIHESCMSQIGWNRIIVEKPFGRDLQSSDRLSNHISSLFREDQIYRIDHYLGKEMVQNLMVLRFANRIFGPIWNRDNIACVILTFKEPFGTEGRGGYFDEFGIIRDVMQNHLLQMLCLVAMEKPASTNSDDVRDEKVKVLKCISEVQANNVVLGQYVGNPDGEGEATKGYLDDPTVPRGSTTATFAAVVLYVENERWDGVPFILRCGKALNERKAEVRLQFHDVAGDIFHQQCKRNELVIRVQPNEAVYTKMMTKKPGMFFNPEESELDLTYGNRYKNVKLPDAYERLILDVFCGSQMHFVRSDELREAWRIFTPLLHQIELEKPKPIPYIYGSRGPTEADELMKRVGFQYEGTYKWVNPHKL

Row | Molecule | IC50 (PvG6PD) [µM] | IC50 (PfGluPho; [3]) [µM] | Stability in the assay buffer / of dissolved compound [1] | IC50 (hG6PD; [4]) [µM] | further results
1 | O=c1oc2c(O)c(O)c(O)c3c(=O)oc4c(O)c(O)cc1c4c23 [FEA, flavellagic acid] | 0.0372 ± 0.0058 |  |  |  | IC50 on PvG6PD (PvG6PD): lower nanomolar range
2 | ClC=C(n1nnc2ccccc21)n1nnc2ccccc21 [8 (vz0882)] | 12.8 ± 7.8 | 18.1 ± 10.4 | less stable |  | 
3 | O=C(O)C(Cl)(C=C(Cl)Cl)[N+](=O)[O-] (stereo not drawn) [10 (vz1204)] | 23.5 ± 3.7 |  |  | > 100 | 
4 | O=CC(Cl)=C(I)I [13 (vz0288)] |  | 29.6 ± 23.2 |  | > 100 | IC50 (PvG6PD; mean ± SD, at least two independent determinations, different enzyme batches, read-out: IC50 on PvG6PD): 23.3 ± 7.8 µM
5 | N#CC(Br)c1ncccn1 (stereo not drawn) [2 (vz1731)] | 2.1 ± 0.1 | 11.7 ± 9.9 | only active when the powder was freshly dissolved | 91.7 ± 35 | 
6 | O=C(C(=C1N(Cc2ccc(Cl)nc2)CCN1Cc1ccc(Cl)nc1)[N+](=O)[O-])C(Cl)(Cl)[N+](=O)[O-] [18 (vz0909)] | 9.1 ± 2.8 |  | less stable |  | IC50 (PfGluPho): 23.6 ± 14.3 µM; IC50 (hG6PD): 26 ± 1.8 µM
7 | O=c1oc2c(O)c(O)c(O)c3c(=O)oc4c(O)c(O)c(O)c1c4c23 [CEA, coruleoellagic acid] | 0.0444 ± 0.0019 |  |  |  | IC50 on PvG6PD (PvG6PD): lower nanomolar range
8 | N#CC(Br)c1ncccc1Cl (stereo not drawn) [4 (vz1732)] | 0.2 | 0.9 ± 0.2 | only active when the powder was freshly dissolved | 34.7 ± 21 | Type of inhibition of PfGluPho against G6P and NADP+ (PfGluPho; both substrate G6P and coenzyme NADP+): non-competitively; IC50 on hG6PD relative to plasmodial enzymes (selectivity) (hG6PD): one to two orders of magnitude higher
9 | C=C[S+]([O-])c1sc(Cl)c(N2CCN(c3c(Cl)sc([S+]([O-])C=C)c3[N+](=O)[O-])CC2)c1[N+](=O)[O-] (stereo not drawn) [21 (vz0527)] | 0.2 ± 0.1 |  | only active when the powder was freshly dissolved |  | IC50 (PfGluPho): 1.7 ± 0.3 µM; IC50 (hG6PD): 8.3 ± 2.7 µM; IC50 on hG6PD relative to plasmodial enzymes (selectivity) (hG6PD): one to two orders of magnitude higher
10 | O=[N+]([O-])C(C(Cl)=C(Cl)Cl)=C1N(c2ccccc2)CCN1c1ccccc1 [20 (vz0005)] | > 100 | > 100 |  | > 100 | 
11 | O=C(/C(=C1\N(Cc2ccc(Cl)nc2)CCN1Cc1cnc(Cl)s1)[N+](=O)[O-])C(Cl)(Cl)[N+](=O)[O-] [19 (vz0914)] | 5.6 ± 0.6 |  | less stable |  | IC50 (PfGluPho): 8.4 ± 8.4 µM; IC50 (hG6PD): 29.6 ± 5 µM
12 | PfGluPho S315Y (enzyme, source: E. coli, purified (size exclusion chromatography under reducing conditions); produced as described previously [14]) MDYENFVKSAEEINNLHNVNYLETKDLNDFNWKAAYYICKEIYDKQQINKDGYVVIGLSGGRTPIDVYKNMCLIKDIKIDKSKLIFFIIDERYKSDDHKFSNYNNIKFLFHNLNINEKEQLYKPDTTKSIVDCILDYNDKIKIMIEKYKKVDIAILGMGSDFHIASLFPNIFYNIYMNNYQNNYIYNEKTLDFINNDQDNDNLKYLKEYVYFTTTNQFDVRKRITVSLNLLANASSKIFLLNSKDKLDLWKNMLIKSYIEVNYNLYPATYLIDTSCTNENVNINNNNNNNNKNKNNYCYSNTTVISCGYENYTKYIEEIYDSKYALSLYSNSLNKEELLTIIIFGCSGDLAKKKIYPALFKLFCNNSLPKDLLIIGFARTVQDFDTFFDKIVIYLKRCLLCYEDWSISKKKDLLNGFKNRCRYFVGNYSSSESFENFNKYLTTIEEEEAKKKYYATCYKMNGSDYNISNNVAEDNISIDDENKTNEYFQMCTPKNCPDNVFSSNYNFPYVINRMLYLALPPHIFVSTLKNYKKNCLNSKGTDKILLEKPFGNDLDSFKMLSKQILENFNEQQIYRIDHYLGKDMVSGLLKLKFTNTFLLSLMNRHFIKCIKITLKETKGVYGRGQYFDPYGIIRDVMQNHMLQLLTLITMEDPIDLNDESVKNEKIKILKSIPSIKLEDTIIGQYEKAENFKEDENNDDESKKNHSYHDDPHIDKNSITPTFCTCILYINSINWYGVPIIFKSGKGLNKDICEIRIQFHNIMGSSDENMNNNEFVIILQPVEAIYLKMMIKKTGCEEMEEVQLNLTVNEKNKKINVPEAYETLLLECFKGHKKKFISDEELYESWRIFTPLLKELQEKQVKPLKYSFGSSGPKEVFGLVKKYYNYGKNYTHRPEFVRKSSFYEDDLLDIN |  |  |  |  | stoichiometry N [2]: 4
